Measurements from PubChem BioAssay (NCI).
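Dose response: 5 concentrations. Exposure: 48 h. Format: 96-well plates. Endpoint: linear interpolation; highest concentration if not reached. TGI denotes the concentration required for complete inhibition of growth.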

Tests used:
Experiment in all cases: NCI-60 cell line screen, 48 h
SK-MEL-28 melanoma = test system: SK-MEL-28 melanoma
SNB-19 CNS = test system: SNB-19 CNS
A498 renal = test system: A498 renal
HT29 colon = test system: HT29 colon
NCI-H23 lung = test system: NCI-H23 lung
SNB-75 CNS = test system: SNB-75 CNS
HOP-62 NSCLC = test system: HOP-62 NSCLC
LOX IMVI melanoma = test system: LOX IMVI melanoma
OVCAR-3 ovarian = test system: OVCAR-3 ovarian
SF-268 CNS = test system: SF-268 CNS
IGROV1 ovarian = test system: IGROV1 ovarian
NCI-H522 lung = test system: NCI-H522 lung
RXF 393 renal = test system: RXF 393 renal
UO-31 renal = test system: UO-31 renal
EKVX NSCLC = test system: EKVX NSCLC
XF 498 CNS = test system: XF 498 CNS
SK-MEL-2 melanoma = test system: SK-MEL-2 melanoma
RPMI-8226 leukemia = test system: RPMI-8226 leukemia
U251 CNS = test system: U251 CNS
ACHN renal = test system: ACHN renal
MALME-3M melanoma = test system: MALME-3M melanoma
UACC-62 melanoma = test system: UACC-62 melanoma
SK-MEL-5 melanoma = test system: SK-MEL-5 melanoma
TK-10 renal = test system: TK-10 renal
SF-539 CNS = test system: SF-539 CNS
KM12 colon = test system: KM12 colon
COLO 205 colon = test system: COLO 205 colon
OVCAR-5 ovarian = test system: OVCAR-5 ovarian
OVCAR-8 ovarian = test system: OVCAR-8 ovarian
CCRF-CEM leukemia = test system: CCRF-CEM leukemia
KM20L2 colon = test system: KM20L2 colon
NCI-H226 lung = test system: NCI-H226 lung
LXFL 529 NSCLC = test system: LXFL 529 NSCLC
HOP-92 NSCLC = test system: HOP-92 NSCLC
M19-MEL melanoma = test system: M19-MEL melanoma
CAKI-1 renal = test system: CAKI-1 renal
SF-295 CNS = test system: SF-295 CNS
OVCAR-4 ovarian = test system: OVCAR-4 ovarian
SK-OV-3 ovarian = test system: SK-OV-3 ovarian
SN12C renal = test system: SN12C renal
UACC-257 melanoma = test system: UACC-257 melanoma
NCI-H460 lung = test system: NCI-H460 lung
HCT-15 colon = test system: HCT-15 colon
DLD-1 colon = test system: DLD-1 colon
SNB-78 CNS = test system: SNB-78 CNS
HL-60(TB) leukemia = test system: HL-60(TB) leukemia
HOP-18 NSCLC = test system: HOP-18 NSCLC
HCC-2998 colon = test system: HCC-2998 colon
K-562 leukemia = test system: K-562 leukemia
HCT-116 colon = test system: HCT-116 colon
SW-620 colon = test system: SW-620 colon
DMS 114 small cell lung = test system: DMS 114 small cell lung
A549 NSCLC = test system: A549 NSCLC
M14 melanoma = test system: M14 melanoma
DMS 273 small cell lung = test system: DMS 273 small cell lung
SR leukemia = test system: SR leukemia
MOLT-4 leukemia = test system: MOLT-4 leukemia
RXF-631 renal = test system: RXF-631 renal
786-0 renal = test system: 786-0 renal

In the case of `C=C1C(=O)OC2/C=C(\C(=O)O)CC/C=C(\C)CC(OC(=O)/C=C(\C)CC)C12` (stereo unspecified), the TGI (SK-MEL-28 melanoma) is reported as 34.2 µM, the TGI (SNB-19 CNS) is reported as 33.5 µM and the TGI (A498 renal) is reported as 32 µM. It also gave a TGI (HT29 colon) of 30.1 µM, a TGI (NCI-H23 lung) of 33.2 µM and a TGI (SNB-75 CNS) of 47.6 µM. For the same molecule, the TGI (HOP-62 NSCLC) was 34.5 µM, the TGI (LOX IMVI melanoma) was 29.3 µM and the TGI (OVCAR-3 ovarian) was 30.8 µM. For the same molecule, the TGI (SF-268 CNS) was 30.6 µM, the TGI (IGROV1 ovarian) was 40.9 µM and the TGI (NCI-H522 lung) was 32.8 µM. It also gave a TGI (RXF 393 renal) of 27.5 µM, a TGI (UO-31 renal) of 41.9 µM and a TGI (EKVX NSCLC) of 59.3 µM. It also gave a TGI (XF 498 CNS) of 32.5 µM, a TGI (SK-MEL-2 melanoma) of 28.7 µM and a TGI (RPMI-8226 leukemia) greater than 100 µM. For the same molecule, the TGI (U251 CNS) was 30.7 µM, the TGI (ACHN renal) was 46.2 µM and the TGI (MALME-3M melanoma) was 32.7 µM. It also gave a TGI (UACC-62 melanoma) of 28.5 µM, a TGI (SK-MEL-5 melanoma) of 32.9 µM and a TGI (TK-10 renal) greater than 100 µM. The TGI (SF-539 CNS) was 29.9 µM, the TGI (KM12 colon) was 27.9 µM and the TGI (COLO 205 colon) was 31.3 µM. It also gave a TGI (OVCAR-5 ovarian) of 26.6 µM, a TGI (OVCAR-8 ovarian) of 33.9 µM and a TGI (CCRF-CEM leukemia) greater than 100 µM. The TGI (KM20L2 colon) was 39.5 µM, the TGI (NCI-H226 lung) was 32.9 µM and the TGI (LXFL 529 NSCLC) was 31.6 µM. For the same molecule, the TGI (HOP-92 NSCLC) was 36.8 µM, the TGI (M19-MEL melanoma) was 29.1 µM and the TGI (CAKI-1 renal) was 54.1 µM. It also gave a TGI (SF-295 CNS) of 31.3 µM, a TGI (OVCAR-4 ovarian) of 45.1 µM and a TGI (SK-OV-3 ovarian) of 37.9 µM. It also gave a TGI (SN12C renal) of 31 µM, a TGI (UACC-257 melanoma) of 39.9 µM and a TGI (NCI-H460 lung) of 30.7 µM. It also gave a TGI (HCT-15 colon) of 28.6 µM, a TGI (DLD-1 colon) of 43.6 µM and a TGI (SNB-78 CNS) of 61 µM. The TGI (HL-60(TB) leukemia) was greater than 100 µM, the TGI (HOP-18 NSCLC) was 39.9 µM and the TGI (HCC-2998 colon) was 33.8 µM. It also gave a TGI (K-562 leukemia) greater than 100 µM, a TGI (HCT-116 colon) of 25.6 µM and a TGI (SW-620 colon) of 31.3 µM. It also gave a TGI (DMS 114 small cell lung) of 30.2 µM, a TGI (A549 NSCLC) of 31.6 µM and a TGI (M14 melanoma) of 31.2 µM. The TGI (DMS 273 small cell lung) was 34 µM, the TGI (SR leukemia) was greater than 100 µM and the TGI (MOLT-4 leukemia) was greater than 100 µM.
For `COc1cc(NCC(C#N)C#N)ccc1N=Nc1ccc(Cl)cc1`, the TGI (SK-MEL-28 melanoma) was 80.1 µM, the TGI (SNB-19 CNS) was 61.6 µM and the TGI (A498 renal) was greater than 100 µM. It also gave a TGI (HT29 colon) of 30.5 µM, a TGI (NCI-H23 lung) of 65.4 µM and a TGI (SNB-75 CNS) of 90.1 µM. For the same molecule, the TGI (HOP-62 NSCLC) was 36.4 µM, the TGI (LOX IMVI melanoma) was 36.1 µM and the TGI (OVCAR-3 ovarian) was 38.4 µM. For the same molecule, the TGI (SF-268 CNS) was greater than 100 µM, the TGI (RXF-631 renal) was greater than 100 µM and the TGI (IGROV1 ovarian) was 71.7 µM. It also gave a TGI (NCI-H522 lung) of 31.9 µM, a TGI (RXF 393 renal) of 79 µM and a TGI (UO-31 renal) of 52.5 µM. It also gave a TGI (EKVX NSCLC) of 68.5 µM, a TGI (SK-MEL-2 melanoma) of 46.9 µM and a TGI (RPMI-8226 leukemia) of 92.3 µM. For the same molecule, the TGI (U251 CNS) was 37 µM, the TGI (ACHN renal) was greater than 100 µM and the TGI (MALME-3M melanoma) was 71.4 µM. For the same molecule, the TGI (UACC-62 melanoma) was 23.8 µM, the TGI (786-0 renal) was 48.8 µM and the TGI (SK-MEL-5 melanoma) was 45.9 µM. For the same molecule, the TGI (TK-10 renal) was 73 µM, the TGI (SF-539 CNS) was 51.6 µM and the TGI (KM12 colon) was 33.4 µM. The TGI (COLO 205 colon) was 31.7 µM, the TGI (OVCAR-5 ovarian) was 44.4 µM and the TGI (OVCAR-8 ovarian) was greater than 100 µM. It also gave a TGI (CCRF-CEM leukemia) of 61.9 µM, a TGI (KM20L2 colon) of 29.3 µM and a TGI (NCI-H226 lung) greater than 100 µM. The TGI (LXFL 529 NSCLC) was 51.7 µM, the TGI (M19-MEL melanoma) was 55.9 µM and the TGI (SF-295 CNS) was 51.3 µM. It also gave a TGI (OVCAR-4 ovarian) greater than 100 µM, a TGI (SK-OV-3 ovarian) of 83.8 µM and a TGI (SN12C renal) greater than 100 µM. For the same molecule, the TGI (NCI-H460 lung) was 52.9 µM, the TGI (HCT-15 colon) was 47.4 µM and the TGI (DLD-1 colon) was 85.4 µM. The TGI (SNB-78 CNS) was 98.8 µM, the TGI (HOP-18 NSCLC) was 39.7 µM and the TGI (HCC-2998 colon) was 35.1 µM. The TGI (K-562 leukemia) was 50.5 µM, the TGI (HCT-116 colon) was 62.2 µM and the TGI (SW-620 colon) was 41.9 µM. It also gave a TGI (DMS 114 small cell lung) of 48.2 µM, a TGI (A549 NSCLC) greater than 100 µM and a TGI (M14 melanoma) of 33.5 µM. The TGI (DMS 273 small cell lung) was 41.4 µM, the TGI (SR leukemia) was 35.9 µM and the TGI (MOLT-4 leukemia) was 39.8 µM.
